We go through three molecules from US20150119352A1, “DINUCELOSIDE POLYPHOSPHATES FOR THE TREATMENT OF PAIN” (GlobalAcorn Ltd., priority 2012, published 2015).

Like-named read-outs stand apart in the source and are kept apart here.

One assay has as its system male Wistar rats. Kind of assay: Formalin test (nociceptive behaviour, spontaneous jerking of injected paw). The class given is in vivo, rat. As to conditions: for IC50: Rattus norvegicus, Table 1, concentration; for IC50 First phase (acute pain), calculated / IC50 Second phase (chronic pain), calculated: Table 1, assuming 40 g rat body weight; for First phase (acute pain) / First phase (acute pain) (μg/kg) / Second phase (chronic pain) / Second phase (chronic pain) (μg/kg): Table 2; for First phase (acute pain) Human (70 kg) nmol / Second phase (chronic pain) Human (70 kg) nmol: Table 2, estimated indicative dose for 70 kg human; for First phase (acute pain) Rat (40 g) nmol / Second phase (chronic pain) Rat (40 g) nmol: Table 2, per 40 g rat. The method, then:
FIG. 6. Effects of subcutaneous Ap4A analogues on pain responses induced by intraplantar (right hindpaw) formalin injection. Rats were subcutaneously injected with formalin solution alone (0.5%, 50 μL, control) or co-injected with the formalin solution and solutions with AppCH2ppA (1 μM-100 μM, 100 μL) or AppNHppA (0.1 μM-100 μM, 100 μL). Age-matched control animals were injected with saline. A. Time-course of the effects of subcutaneous AppCH2ppA (a) and AppNHppA (b) on the number of the spontaneous jerkings of the injected paw. B. Bar-graphs of the effects of AppCH2ppA (a, b) and AppNHppA (c, d) on the integral number of spontaneous jerkings. Measurements were made during the acute phase (0-6 min) and tonic phase (7-45 min) of the formalin response. C. Dose-response curves for AppCH2ppA (a) and AppNHppA (b) during tonic and acute phases.
The formalin test experiments were performed on 21-day old male Wistar rats, weighing 40±5 g according to the method described previously (Simonetti et al, 2006; Yegutkin et al, 2008). Briefly, animal was acclimated to an acrylic observation chamber for at least 1 h before the injection of formalin ([…] of 0.5% solution in 0.9% saline) into the dorsal surface of the right hindpaw. Age-matched control animals were injected with saline (100 μL). Immediately after the injection, each animal was returned to the observation chamber and its behavioural characteristics were recorded for 45 min. We noticed consistently observed type of response: spontaneous jerking of the injected paw. The number of jerks was measured for each […], using self-developed computer software.
The effects of AppNHppA and AppCH2ppA were examined on the behavioral reactions of rats in inflammatory pain models. Injection of diluted formalin into a rodent's hindpaw produces a biphasic nociceptive response consisting of immediate (acute phase) and tonic (inflammatory phase) components. The first phase of a formalin response (i.e. 0-5 min after injection) involves a direct effect of formalin on the pain receptors, while changes in animal behavior during the second tonic phase (i.e. 7-45 min after injection) are caused by hyperalgesia that develops due to the sensitization of nociceptive and spinal neurons via mechanisms that are triggered by repetitive stimulation during the first phase.

Another assay concerns the target T1, P2X3 receptors (Homo sapiens, UniProt P56373).
T1 sequence (P56373 1-397): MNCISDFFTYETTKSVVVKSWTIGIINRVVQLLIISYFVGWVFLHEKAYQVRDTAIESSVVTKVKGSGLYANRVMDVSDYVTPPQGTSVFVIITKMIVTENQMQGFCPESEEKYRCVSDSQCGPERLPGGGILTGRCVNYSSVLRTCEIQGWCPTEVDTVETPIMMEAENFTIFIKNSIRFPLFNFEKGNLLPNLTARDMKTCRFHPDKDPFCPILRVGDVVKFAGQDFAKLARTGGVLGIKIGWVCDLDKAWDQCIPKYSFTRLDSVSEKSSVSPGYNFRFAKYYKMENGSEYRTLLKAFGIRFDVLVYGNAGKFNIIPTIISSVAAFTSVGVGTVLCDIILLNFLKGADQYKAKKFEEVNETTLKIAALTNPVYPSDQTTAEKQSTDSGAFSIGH
As to conditions: Jarvis et al, 2002; cited from earlier work.

Where [1] appears, read: read-out: IC50 First phase (acute pain).
Setting [2] is: read-out: IC50 Second phase (chronic pain).

A word on the IC50: it is the midpoint of a concentration-inhibition curve. As for `Nc1nc2c(ncn2[C@@H]2O[C@H](COP(=O)(O)OP(=O)(O)CP(=O)(O)OP(=O)(O)OC[C@H]3O[C@@H](n4cnc5c(N)ncnc54)C(O)C3O)C(O)[C@@H]2O)c(=O)[nH]1` (stereo partly shown) [AppCH2ppG], the IC50 with male Wistar rats (setting [1]) was above 100000 nM. Moreover, the IC50 in the assay with male Wistar rats (setting [2]) was found to be 180 ± 120 nM. Moreover, in the assay with male Wistar rats, the “IC50 First phase (acute pain), calculated” value is reported as above 250 nmol/kg; the “IC50 Second phase (chronic pain), calculated” value is 0.45 ± 0.30 nmol/kg; the “First phase (acute pain)” value is listed as above 250 nmol/kg; the “First phase (acute pain) (μg/kg)” value is recorded as “(209) μg/kg”. Also, in the assay with male Wistar rats, the “Second phase (chronic pain)” value turned out to be 0.45 ± 0.30 nmol/kg, the “Second phase (chronic pain) (μg/kg)” value was “(0.376) μg/kg”, the “First phase (acute pain) Human (70 kg) nmol” value is on record as 17500 nmol and the “Second phase (chronic pain) Human (70 kg) nmol” value was 31.5 nmol. Further, in the assay with male Wistar rats, the “First phase (acute pain) Rat (40 g) nmol” value is given as 10 nmol and the “Second phase (chronic pain) Rat (40 g) nmol” value is listed as 0.018 nmol.

Regarding `Nc1ncnc2c1ncn2[C@@H](CO)O[C@@H](CO)COP(=O)(O)OP(=O)(O)CP(=O)(O)OP(=O)(O)OC[C@H](CO)O[C@H](CO)n1cnc2c(N)ncnc21` [AdiolppCH2ppAdiol], the IC50 in the assay on male Wistar rats (setting [1]) was around 50000 nM. Moreover, in the assay with male Wistar rats (setting [2]), the IC50 is 84 ± 140 nM. In addition, in the assay with male Wistar rats, the “IC50 First phase (acute pain), calculated” value is reported as around 125 nmol/kg; the “IC50 Second phase (chronic pain), calculated” value is 0.21 ± 0.35 nmol/kg; the “First phase (acute pain)” value is listed as around 125 nmol/kg; the “First phase (acute pain) (μg/kg)” value was “(104) μg/kg”. Also, in the assay with male Wistar rats, the “Second phase (chronic pain)” value is listed as 0.21 ± 0.35 nmol/kg, the “Second phase (chronic pain) (μg/kg)” value is given as “(0.175) μg/kg”, the “First phase (acute pain) Human (70 kg) nmol” value was 8750 nmol and the “Second phase (chronic pain) Human (70 kg) nmol” value is on record as 14.7 nmol. Moreover, in the assay on male Wistar rats, the “First phase (acute pain) Rat (40 g) nmol” value stood at 5 nmol and the “Second phase (chronic pain) Rat (40 g) nmol” value came out at 0.0084 nmol.

With `O=C(O)c1cc(C(=O)O)c(C(=O)N(Cc2cccc(Oc3ccccc3)c2)[C@H]2CCCc3ccccc32)cc1C(=O)O` [A-317491], the “concentration range of binding to P2X3 receptors” value at P2X3 receptors is on record as “within a micromolar range”.
